Test results reported in paper PMC3391414 (Journal of Agricultural and Food Chemistry, 2011).
“Also recorded” adds a separate entry of the source.

Key:
UGT1A9 = molecular target: T1, UGT1A9 (Homo sapiens, UniProt O60656); assay: Glucuronidation by recombinant human UGT1A9
T1 sequence (O60656 26-530): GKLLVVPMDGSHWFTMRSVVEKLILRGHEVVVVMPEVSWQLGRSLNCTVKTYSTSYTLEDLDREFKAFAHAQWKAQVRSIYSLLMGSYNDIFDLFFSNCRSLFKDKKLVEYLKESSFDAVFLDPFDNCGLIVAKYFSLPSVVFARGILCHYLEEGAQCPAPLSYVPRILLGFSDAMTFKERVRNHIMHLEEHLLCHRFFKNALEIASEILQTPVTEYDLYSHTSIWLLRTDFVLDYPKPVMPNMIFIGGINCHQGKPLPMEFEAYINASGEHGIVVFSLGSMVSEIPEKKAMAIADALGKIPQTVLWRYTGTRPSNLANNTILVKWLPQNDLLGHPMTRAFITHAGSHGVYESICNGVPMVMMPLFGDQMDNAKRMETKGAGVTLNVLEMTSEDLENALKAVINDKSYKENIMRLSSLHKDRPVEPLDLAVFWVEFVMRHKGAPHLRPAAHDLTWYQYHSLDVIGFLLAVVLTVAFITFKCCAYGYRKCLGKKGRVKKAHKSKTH

UGT1A6 = molecular target: T2, UGT1A6 (Homo sapiens, UniProt P19224); assay: Glucuronidation by recombinant human UGT1A6; settings: UGT1A6, substrate 10 μM
T2 sequence (P19224 27-532): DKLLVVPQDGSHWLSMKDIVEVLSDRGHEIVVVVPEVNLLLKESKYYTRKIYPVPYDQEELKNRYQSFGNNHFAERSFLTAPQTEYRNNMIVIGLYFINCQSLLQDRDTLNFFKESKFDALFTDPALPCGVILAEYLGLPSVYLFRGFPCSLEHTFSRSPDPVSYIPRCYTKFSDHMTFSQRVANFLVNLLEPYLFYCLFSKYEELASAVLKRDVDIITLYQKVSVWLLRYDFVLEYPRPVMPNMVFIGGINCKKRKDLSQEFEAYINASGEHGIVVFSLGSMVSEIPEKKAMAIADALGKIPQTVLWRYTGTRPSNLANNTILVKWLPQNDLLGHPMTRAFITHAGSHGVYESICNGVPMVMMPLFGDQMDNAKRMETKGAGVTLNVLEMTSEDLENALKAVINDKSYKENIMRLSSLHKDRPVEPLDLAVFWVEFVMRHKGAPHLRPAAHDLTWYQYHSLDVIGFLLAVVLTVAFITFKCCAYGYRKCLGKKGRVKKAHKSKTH

UGT2B7 = molecular target: T3, UGT2B7 (Homo sapiens, UniProt P16662); assay: Glucuronidation by recombinant human UGT2B7; settings: UGT2B7, substrate 10 μM
T3 sequence (P16662 24-529): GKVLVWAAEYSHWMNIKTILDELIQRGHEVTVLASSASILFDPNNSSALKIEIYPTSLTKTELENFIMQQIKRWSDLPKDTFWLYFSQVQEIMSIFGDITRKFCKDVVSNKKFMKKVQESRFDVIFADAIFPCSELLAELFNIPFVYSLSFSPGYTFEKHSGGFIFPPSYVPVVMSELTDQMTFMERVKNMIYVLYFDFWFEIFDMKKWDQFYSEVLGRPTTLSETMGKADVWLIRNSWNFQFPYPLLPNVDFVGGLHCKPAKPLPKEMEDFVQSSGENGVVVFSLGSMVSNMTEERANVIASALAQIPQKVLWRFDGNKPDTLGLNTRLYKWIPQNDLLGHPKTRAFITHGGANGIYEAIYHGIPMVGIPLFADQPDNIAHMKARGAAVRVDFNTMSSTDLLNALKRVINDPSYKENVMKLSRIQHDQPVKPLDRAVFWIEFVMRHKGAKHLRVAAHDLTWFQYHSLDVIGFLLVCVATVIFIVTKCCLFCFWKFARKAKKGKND

UGT1A1 = molecular target: T4, UGT1A1 (Homo sapiens, UniProt P22309); settings: 10 μM, pH 7.4
T4 sequence (P22309 26-533): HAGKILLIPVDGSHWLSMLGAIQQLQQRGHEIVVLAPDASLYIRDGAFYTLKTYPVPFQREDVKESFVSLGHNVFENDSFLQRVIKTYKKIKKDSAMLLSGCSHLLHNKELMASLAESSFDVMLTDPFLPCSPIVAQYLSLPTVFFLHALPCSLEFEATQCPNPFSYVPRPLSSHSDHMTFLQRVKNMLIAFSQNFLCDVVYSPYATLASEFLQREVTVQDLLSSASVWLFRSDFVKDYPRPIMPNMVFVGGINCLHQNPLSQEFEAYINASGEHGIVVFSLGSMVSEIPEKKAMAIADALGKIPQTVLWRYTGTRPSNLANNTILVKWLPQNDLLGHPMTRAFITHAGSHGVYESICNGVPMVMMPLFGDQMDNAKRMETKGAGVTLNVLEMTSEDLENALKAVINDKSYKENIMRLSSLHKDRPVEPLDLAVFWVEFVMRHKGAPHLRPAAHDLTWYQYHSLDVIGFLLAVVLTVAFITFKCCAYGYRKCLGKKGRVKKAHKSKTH

UGT1A7 = molecular target: T5, UGT1A7 (Homo sapiens, UniProt Q9HAW7); settings: 10 μM, pH 7.4
T5 sequence (Q9HAW7 26-530): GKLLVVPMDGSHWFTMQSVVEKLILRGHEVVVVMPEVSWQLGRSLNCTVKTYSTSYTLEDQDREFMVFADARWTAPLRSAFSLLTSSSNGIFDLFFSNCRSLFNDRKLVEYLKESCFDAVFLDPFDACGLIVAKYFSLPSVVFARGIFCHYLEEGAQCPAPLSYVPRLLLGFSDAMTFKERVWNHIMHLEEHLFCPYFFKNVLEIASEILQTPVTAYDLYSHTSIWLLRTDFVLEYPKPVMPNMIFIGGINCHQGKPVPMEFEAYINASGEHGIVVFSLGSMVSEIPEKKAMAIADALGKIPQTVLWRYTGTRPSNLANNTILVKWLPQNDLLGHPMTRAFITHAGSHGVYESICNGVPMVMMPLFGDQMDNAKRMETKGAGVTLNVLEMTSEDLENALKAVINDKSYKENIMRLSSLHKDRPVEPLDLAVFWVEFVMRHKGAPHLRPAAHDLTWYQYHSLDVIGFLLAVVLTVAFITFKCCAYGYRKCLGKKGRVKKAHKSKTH

Degree of regiospecificity (major glucuronide in bracket) (UGT1A9; UGT1A9, substrate 2.5 μM)	Degree of regiospecificity (major glucuronide in bracket) (UGT1A9; UGT1A9, substrate 10 μM)	Degree of regiospecificity (3-O vs 7-O) (UGT1A9; UGT1A9, substrate 35 μM)	Hydroxyl positions glucuronidated (UGT1A6)	Hydroxyl positions glucuronidated (UGT2B7)	Hydroxyl positions glucuronidated (UGT1A1)	Hydroxyl positions glucuronidated (UGT1A7)	Structure (SMILES)	Degree of regiospecificity (major glucuronide in bracket) (UGT1A9; UGT1A9, substrate 2.5 μM, listed as 5,7,4’THFnol)	Hydroxyl positions glucuronidated (UGT1A9; UGT1A9, substrate 10 μM)	Degree of regiospecificity (major glucuronide in bracket) (UGT1A9; UGT1A9, substrate 10 μM, listed as 5,7,4’THFnol)
Moderate (3-O)	Weak (3-O)	no regiospecificity	glucuronidated only 7-O and 4’-O	glucuronidated only 7-O and 4’-O	–	–	O=c1c(O)c(-c2ccc(O)cc2)oc2cc(O)cc(O)c12 [5,7,4'THFnol, 3,5,7,4’-tetrahydroxyflavone]	moderate regiospecificity for glucuronidation of 3-O position	glucuronidated only 3-O and 7-O positions	only weakly preferred 3-O position; also recorded: weak regiospecificity for glucuronidation of 3-O position
–	–	–	–	–	glucuronidated 7-O position only	glucuronidated 7-O position only	O=c1cc(-c2ccccc2)oc2cc(O)cc(O)c12 [5,7DHF, 5,7-dihydroxyflavone]	–	–	–
